How the values were obtained:
[1] = molecular target: T1, COX-2 (Homo sapiens, UniProt P35354); test: COX-2 activity in human whole blood (PGE2 by EIA after LPS induction); type: cell-based; conditions: for IC50: LPS 10 μg/ml, 24 h at 37° C., PGE2 levels
T1 construct: incubated in the presence of LPS (10 μg/ml) for 24 h at 37° C. in order to induce the COX-2 expression; from tissue; host or cells: fresh heparinized human whole blood from healthy volunteers, LPS-stimulated
T1 sequence (P35354 18-604): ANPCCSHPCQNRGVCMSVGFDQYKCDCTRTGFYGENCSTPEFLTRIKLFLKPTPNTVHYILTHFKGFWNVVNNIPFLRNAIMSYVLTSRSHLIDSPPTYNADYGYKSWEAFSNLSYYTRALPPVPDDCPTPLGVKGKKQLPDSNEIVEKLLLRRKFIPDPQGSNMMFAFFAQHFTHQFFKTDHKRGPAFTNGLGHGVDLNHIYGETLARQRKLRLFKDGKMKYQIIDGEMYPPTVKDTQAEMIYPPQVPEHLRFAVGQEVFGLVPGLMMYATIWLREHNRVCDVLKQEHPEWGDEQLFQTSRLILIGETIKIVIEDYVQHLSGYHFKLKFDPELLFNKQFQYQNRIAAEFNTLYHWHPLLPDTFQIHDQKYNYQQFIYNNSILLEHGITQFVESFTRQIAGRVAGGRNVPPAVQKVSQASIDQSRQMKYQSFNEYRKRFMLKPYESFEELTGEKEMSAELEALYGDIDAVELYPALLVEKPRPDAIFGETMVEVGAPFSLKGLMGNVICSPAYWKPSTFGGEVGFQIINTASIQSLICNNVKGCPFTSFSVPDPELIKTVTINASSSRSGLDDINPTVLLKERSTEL
Procedure: (§1) COX-1 and COX-2 Activities in Human Whole Blood
For the COX-2 activity determination, 500 μl aliquots of blood were incubated in the presence of LPS (10 μg/ml) for 24 h at 37° C. in order to induce the COX-2 expression (Patriagnani et al., J. Pharm. Exper. Ther. 271; 1705-1712 (1994)). Plasma was separated by centrifugation (10 min at 13000 rpm) and kept at −30° C. until PGE2 levels were measured using an enzyme immunoassay kit (EIA). The effects of inhibitors were studied by incubating each compound (5 μl aliquots) at five to six different concentrations with triplicate determinations in the presence of LPS for 24 hours. IC50 values were obtained by non-linear regression using InPlot, GraphPad software on an IBM computer.

[2] = molecular target: T2, COX-1 (Homo sapiens, UniProt P23219); test: COX-1 activity in human whole blood (TXB2 by EIA after calcium ionophore A23187); type: cell-based; conditions: 24 h at 37° C., A23187 25 μM, TXB2 levels
T2 construct: Fresh blood from healthy volunteers; from tissue; host or cells: fresh heparinized human whole blood from healthy volunteers
T2 sequence (P23219 24-599): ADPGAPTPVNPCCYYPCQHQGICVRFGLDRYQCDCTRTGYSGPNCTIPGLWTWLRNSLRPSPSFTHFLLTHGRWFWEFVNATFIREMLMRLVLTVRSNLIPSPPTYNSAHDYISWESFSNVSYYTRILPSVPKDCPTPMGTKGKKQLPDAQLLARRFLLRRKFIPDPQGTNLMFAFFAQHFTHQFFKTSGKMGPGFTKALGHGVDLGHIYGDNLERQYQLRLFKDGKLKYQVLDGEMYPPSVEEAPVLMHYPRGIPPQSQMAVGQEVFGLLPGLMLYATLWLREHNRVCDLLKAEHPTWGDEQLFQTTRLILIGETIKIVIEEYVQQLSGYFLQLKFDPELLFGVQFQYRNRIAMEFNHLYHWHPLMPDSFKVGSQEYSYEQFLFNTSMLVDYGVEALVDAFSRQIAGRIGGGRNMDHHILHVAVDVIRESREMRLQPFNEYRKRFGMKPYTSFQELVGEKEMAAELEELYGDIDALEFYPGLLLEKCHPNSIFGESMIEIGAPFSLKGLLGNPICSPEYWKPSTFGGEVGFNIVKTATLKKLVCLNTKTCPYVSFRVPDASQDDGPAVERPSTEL
Procedure: as §1
Fresh blood from healthy volunteers who had not taken any non-steroidal anti-inflammatory drugs for at least 7 days prior to blood extraction was collected in heparinized tubes (20 units of heparin per ml). For the COX-1 activity determination, 500 μl aliquots of blood were incubated with either 5 μl vehicle (dimethylsulphoxide) or 5 μl of a test compound for 24 h at 37° C. Calcium ionophore A23187 (25 μM) was added 20 min before stopping the incubation. Plasma was separated by centrifugation (10 min at 13000 rpm) and kept at −30° C. until TXB2 levels were measured using an enzyme immunoassay kit (EIA).
The effect of the compounds was evaluated by incubating each compound at five to six different concentrations with triplicate determinations. IC50 values were obtained by non-linear regression using InPlot, GraphPad software on an IBM computer.

IC50 [1]	Ratio COX-1/COX-2 ([1]; ratio of COX-1/COX-2 IC50 values)	IC50 [2]	SMILES
3.7 µM	12.3	45.5 µM	Cc1ccc(-c2ncc(Cl)cc2-c2ccc([S+](C)[O-])cc2)cn1 (racemic) [5-chloro-6′methyl-3-[4-(methylsulfinyl)phenyl]-2,3′-bipyridine (racemate), 5-Chloro-6′-methyl-3-[4-(methylsulfinyl)phenyl]-2,3′-bipyridine]
		20.2 µM	Cc1ccc(-c2ncc(Cl)cc2-c2ccc([S+](C)[O-])cc2)cn1 (single isomer, unassigned) [5-chloro-6′methyl-3-[4-(methylsulfinyl)phenyl]-2,3′-bipyridine (Enantiomer 1a), 5-Chloro-6′-methyl-3-[4-(methylsulfinyl)phenyl]-2,3′-bipyridine (Enantiomer 1a)]
3.5 µM		77.8 µM	Cc1ccc(-c2ncc(Cl)cc2-c2ccc([S+](C)[O-])cc2)cn1 (single isomer, unassigned) [5-chloro-6′methyl-3-[4-(methylsulfinyl)phenyl]-2,3′-bipyridine (Enantiomer 1b), 5-Chloro-6′-methyl-3-[4-(methylsulfinyl)phenyl]-2,3′-bipyridine (Enantiomer 1b)]
